Counter-ions that a name gives are not always drawn.
Experiments:
Format in all cases: biochemical
[1] = molecular target: T1, PI3Kα (Homo sapiens, UniProt P42336); assay: In vitro determination of the PI3K enzyme inhibitory activity in the cell free assay (ADP-Glo Kinase Assay), PI3Kα; settings: ATP 50 μM, read-out: PI3K alpha inhibition
T1 construct: purchased Millipore Ltd (Billerica, Mass.)
Method in brief: (§1)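 Human recombinant PI3K isoforms with PI/PS lipid substrates (50 μM in 2× buffer, Tris pH 7.5, DTT) were run 60 min at room temperature. Final ATP was 50 μM for α, 100 μM for β, 30 μM for γ and 80 μM for δ. ADP formation was read by ADP-Glo luminescence, and IC50 came from a four-parameter logistic fit.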

[2] = molecular target: T2, PI3Kβ (Homo sapiens, UniProt P42338); assay: In vitro determination of the PI3K enzyme inhibitory activity in the cell free assay (ADP-Glo Kinase Assay), PI3Kβ; settings: ATP 100 μM, read-out: PI3K beta inhibition
T2 construct: purchased Millipore Ltd (Billerica, Mass.)
T2 sequence (P42338 whole entry): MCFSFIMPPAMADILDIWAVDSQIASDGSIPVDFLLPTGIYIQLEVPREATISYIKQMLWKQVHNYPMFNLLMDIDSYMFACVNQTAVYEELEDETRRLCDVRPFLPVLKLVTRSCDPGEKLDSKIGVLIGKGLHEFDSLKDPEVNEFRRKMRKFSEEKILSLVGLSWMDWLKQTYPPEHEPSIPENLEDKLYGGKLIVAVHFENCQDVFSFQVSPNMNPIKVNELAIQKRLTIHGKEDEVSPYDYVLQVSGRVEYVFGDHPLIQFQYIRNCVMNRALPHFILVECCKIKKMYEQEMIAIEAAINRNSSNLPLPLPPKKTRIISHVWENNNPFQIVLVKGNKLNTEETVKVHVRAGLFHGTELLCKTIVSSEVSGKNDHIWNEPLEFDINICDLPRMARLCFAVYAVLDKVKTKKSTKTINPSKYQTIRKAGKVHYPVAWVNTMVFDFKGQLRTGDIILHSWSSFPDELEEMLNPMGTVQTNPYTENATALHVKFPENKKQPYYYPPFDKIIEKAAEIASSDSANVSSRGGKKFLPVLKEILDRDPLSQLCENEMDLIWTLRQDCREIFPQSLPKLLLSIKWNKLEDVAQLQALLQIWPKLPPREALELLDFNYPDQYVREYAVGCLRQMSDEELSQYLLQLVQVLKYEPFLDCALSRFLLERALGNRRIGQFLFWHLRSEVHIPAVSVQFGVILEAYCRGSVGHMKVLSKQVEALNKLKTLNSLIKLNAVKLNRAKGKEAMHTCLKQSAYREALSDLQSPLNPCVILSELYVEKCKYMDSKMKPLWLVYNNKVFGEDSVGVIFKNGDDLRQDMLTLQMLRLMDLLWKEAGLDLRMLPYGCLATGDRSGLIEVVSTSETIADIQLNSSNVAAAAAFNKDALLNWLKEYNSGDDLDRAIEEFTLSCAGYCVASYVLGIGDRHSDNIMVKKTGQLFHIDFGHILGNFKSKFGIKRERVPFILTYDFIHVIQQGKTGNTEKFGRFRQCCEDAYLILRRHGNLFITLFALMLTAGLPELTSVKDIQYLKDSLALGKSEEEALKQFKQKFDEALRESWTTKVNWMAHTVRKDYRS
T2 sequence (P27986 whole entry partner): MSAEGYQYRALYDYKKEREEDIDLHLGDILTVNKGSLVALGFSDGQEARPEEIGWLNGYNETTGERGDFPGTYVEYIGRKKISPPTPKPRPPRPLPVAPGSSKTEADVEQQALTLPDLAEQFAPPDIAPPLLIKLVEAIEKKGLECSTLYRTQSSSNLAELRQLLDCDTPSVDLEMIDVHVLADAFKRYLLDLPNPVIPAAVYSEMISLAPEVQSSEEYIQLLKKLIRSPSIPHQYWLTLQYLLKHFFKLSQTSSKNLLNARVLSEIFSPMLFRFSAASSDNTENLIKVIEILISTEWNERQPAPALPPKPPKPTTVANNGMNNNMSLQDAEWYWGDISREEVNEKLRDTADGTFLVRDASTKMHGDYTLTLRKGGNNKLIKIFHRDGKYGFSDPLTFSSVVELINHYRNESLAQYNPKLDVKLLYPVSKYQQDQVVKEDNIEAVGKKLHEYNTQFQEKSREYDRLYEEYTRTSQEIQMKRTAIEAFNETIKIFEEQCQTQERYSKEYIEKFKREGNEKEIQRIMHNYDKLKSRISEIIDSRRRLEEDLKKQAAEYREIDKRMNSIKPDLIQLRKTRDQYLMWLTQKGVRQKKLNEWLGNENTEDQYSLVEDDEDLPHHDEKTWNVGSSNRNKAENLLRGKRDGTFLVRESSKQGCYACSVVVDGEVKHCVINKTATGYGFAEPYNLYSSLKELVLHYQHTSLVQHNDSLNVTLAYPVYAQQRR
Method in brief: as §1

[3] = molecular target: T3, PI3Kγ (Homo sapiens, UniProt P48736); assay: In vitro determination of the PI3K enzyme inhibitory activity in the cell free assay (ADP-Glo Kinase Assay), PI3Kγ; settings: ATP 30 μM, read-out: PI3K gamma inhibition
T3 construct: purchased Millipore Ltd (Billerica, Mass.)
T3 sequence (P48736 whole entry): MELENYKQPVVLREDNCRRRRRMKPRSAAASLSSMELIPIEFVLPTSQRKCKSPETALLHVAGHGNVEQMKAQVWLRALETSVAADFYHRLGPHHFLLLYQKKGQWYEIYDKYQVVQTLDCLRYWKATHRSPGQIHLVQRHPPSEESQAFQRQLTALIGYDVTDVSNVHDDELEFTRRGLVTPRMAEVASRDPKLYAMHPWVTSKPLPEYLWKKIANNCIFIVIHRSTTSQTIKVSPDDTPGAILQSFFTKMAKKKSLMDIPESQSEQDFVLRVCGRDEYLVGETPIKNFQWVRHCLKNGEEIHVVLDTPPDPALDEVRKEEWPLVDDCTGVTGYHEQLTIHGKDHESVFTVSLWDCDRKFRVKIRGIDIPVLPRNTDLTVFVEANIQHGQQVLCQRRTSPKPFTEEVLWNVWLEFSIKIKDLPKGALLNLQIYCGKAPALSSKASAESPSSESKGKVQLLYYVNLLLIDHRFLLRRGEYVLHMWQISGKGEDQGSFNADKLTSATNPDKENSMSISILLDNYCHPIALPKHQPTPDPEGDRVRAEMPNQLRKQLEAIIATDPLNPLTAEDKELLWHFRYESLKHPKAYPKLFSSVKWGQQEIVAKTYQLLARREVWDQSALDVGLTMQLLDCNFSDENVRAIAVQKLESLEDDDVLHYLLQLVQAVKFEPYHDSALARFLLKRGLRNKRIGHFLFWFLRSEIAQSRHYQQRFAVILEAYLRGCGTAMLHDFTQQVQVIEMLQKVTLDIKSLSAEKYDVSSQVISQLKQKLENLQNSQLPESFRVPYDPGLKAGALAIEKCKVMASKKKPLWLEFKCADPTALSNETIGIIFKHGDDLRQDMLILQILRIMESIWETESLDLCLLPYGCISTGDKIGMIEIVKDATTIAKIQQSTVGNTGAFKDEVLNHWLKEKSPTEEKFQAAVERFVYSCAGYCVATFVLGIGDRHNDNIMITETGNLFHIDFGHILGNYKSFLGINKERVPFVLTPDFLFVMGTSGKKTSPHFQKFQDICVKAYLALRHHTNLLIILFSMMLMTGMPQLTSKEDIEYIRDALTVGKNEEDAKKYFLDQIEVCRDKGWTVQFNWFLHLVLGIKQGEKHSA
Method in brief: as §1

[4] = molecular target: T4, PI3Kδ (Homo sapiens, UniProt O00329); assay: In vitro determination of the PI3K enzyme inhibitory activity in the cell free assay (ADP-Glo Kinase Assay), PI3Kδ; settings: ATP 80 μM, read-out: PI3K delta inhibition
T4 construct: purchased Millipore Ltd (Billerica, Mass.)
T4 sequence (O00329 whole entry): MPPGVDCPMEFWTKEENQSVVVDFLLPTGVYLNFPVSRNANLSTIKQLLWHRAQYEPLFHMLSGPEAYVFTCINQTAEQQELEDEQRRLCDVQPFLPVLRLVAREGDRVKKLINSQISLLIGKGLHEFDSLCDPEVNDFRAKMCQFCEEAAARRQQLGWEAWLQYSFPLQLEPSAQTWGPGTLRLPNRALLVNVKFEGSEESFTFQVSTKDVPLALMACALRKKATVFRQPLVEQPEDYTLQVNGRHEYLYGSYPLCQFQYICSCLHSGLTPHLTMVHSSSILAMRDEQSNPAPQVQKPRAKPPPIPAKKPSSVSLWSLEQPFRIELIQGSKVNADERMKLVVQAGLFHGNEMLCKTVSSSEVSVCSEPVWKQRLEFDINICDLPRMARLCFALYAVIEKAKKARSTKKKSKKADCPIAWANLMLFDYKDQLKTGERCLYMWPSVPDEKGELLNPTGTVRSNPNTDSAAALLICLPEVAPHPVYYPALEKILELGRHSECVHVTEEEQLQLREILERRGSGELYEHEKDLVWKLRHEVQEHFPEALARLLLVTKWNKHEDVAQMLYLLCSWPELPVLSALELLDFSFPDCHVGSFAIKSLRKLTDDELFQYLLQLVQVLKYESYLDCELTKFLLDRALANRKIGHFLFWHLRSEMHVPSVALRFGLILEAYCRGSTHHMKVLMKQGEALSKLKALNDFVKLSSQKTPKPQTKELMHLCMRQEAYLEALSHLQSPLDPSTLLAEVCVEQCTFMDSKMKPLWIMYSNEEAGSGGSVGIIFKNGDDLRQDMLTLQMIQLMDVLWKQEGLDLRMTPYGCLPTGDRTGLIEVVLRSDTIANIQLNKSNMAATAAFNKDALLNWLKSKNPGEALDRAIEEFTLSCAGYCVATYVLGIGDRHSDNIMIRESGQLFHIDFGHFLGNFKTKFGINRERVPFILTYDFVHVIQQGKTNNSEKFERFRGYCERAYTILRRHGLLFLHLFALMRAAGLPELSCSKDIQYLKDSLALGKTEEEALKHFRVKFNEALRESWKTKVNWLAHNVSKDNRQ
T4 sequence (P27986 whole entry partner): as the sequence (P27986 whole entry partner) above
Method in brief: as §1

T1 sequence (P42336 whole entry): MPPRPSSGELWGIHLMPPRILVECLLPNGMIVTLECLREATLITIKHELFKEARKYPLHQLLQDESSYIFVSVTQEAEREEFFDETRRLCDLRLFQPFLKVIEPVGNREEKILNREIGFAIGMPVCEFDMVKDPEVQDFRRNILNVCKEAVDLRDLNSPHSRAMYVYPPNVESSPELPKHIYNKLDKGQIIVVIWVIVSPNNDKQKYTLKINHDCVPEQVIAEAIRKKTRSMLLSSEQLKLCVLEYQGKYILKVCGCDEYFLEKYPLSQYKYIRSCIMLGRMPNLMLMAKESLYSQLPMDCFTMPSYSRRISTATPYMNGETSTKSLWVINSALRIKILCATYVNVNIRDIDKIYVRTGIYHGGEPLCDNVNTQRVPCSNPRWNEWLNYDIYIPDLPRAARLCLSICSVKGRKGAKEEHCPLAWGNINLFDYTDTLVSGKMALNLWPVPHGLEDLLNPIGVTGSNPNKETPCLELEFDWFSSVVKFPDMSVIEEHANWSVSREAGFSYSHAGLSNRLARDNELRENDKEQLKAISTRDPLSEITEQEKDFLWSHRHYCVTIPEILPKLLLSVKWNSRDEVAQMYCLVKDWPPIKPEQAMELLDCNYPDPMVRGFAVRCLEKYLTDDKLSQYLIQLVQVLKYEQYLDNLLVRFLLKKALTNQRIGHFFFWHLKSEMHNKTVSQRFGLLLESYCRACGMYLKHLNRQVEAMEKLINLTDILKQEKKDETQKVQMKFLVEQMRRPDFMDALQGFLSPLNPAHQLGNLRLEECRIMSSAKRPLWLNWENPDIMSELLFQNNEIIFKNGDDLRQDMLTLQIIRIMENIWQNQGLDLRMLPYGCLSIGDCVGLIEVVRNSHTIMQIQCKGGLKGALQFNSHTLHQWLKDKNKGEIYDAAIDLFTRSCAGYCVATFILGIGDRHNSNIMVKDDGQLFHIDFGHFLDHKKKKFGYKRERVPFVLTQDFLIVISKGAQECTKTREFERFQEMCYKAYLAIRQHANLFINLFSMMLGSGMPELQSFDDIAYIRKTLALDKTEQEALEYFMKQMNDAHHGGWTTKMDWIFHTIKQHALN
T1 sequence (P27986 whole entry partner): as the sequence (P27986 whole entry partner) above

| Structure (SMILES) | IC50 [1] [nM] | IC50 [2] [nM] | IC50 [3] [nM] | IC50 [4] [nM] |
| --- | --- | --- | --- | --- |
| CC(Nc1ncnc(N)c1C(N)=O)c1cc2ccccn2c1-c1ccccn1 (stereo not drawn) [Example 52, 4-amino-6-({1-[3-(pyridin-2-yl)indolizin-2-yl]ethyl}amino)pyrimidine-5-carboxamide] | > 1000 | > 1000 | > 1000 | 10 to 1000 |
| CC(Nc1ncnc(N)c1C(=O)O)c1cc2ccccn2c1-c1ccccn1 (stereo not drawn) [Example 53, 4-amino-6-({1-[3-(pyridin-2-yl)indolizin-2-yl]ethyl}amino)pyrimidine-5-carboxylic acid formate] | > 1000 | > 1000 | > 1000 | > 1000 |
| CC(NC(=O)c1nccnc1N)c1cc2ccccn2c1-c1ccccn1 (stereo not drawn) [Example 54, 3-amino-N-{1-[3-(pyridin-2-yl)indolizin-2-yl]ethyl}pyrazine-2-carboxamide] | > 1000 | > 1000 | > 1000 | > 1000 |
| Nc1nccnc1C(=O)NCc1cn2ccccc2c1-c1ccccn1 [Example 55, 3-amino-N-{[1-(pyridin-2-yl)indolizin-2-yl]methyl}pyrazine-2-carboxamide] | > 1000 | > 1000 | > 1000 | > 1000 |
| CC(Nc1ncnc(N)c1CO)c1cc2ccccn2c1-c1ccccn1 (stereo not drawn) [Example 56, [4-amino-6-({1-[3-(pyridin-2-yl)indolizin-2-yl]ethyl}amino)pyrimidin-5-yl]methanol] | > 1000 | > 1000 | > 1000 | > 1000 |
| CC(Nc1ncnc(N)c1CN1CCOCC1)c1cc2ccccn2c1-c1ccccn1 (stereo not drawn) [Example 57, 5-(morpholin-4-ylmethyl)-4-N-{1-[3-(pyridin-2-yl)indolizin-2-yl]ethyl}pyrimidine-4,6-diamine] | > 1000 | > 1000 | > 1000 | > 1000 |
| CC(Nc1ncnc(N)c1/C=N/O)c1cc2ccccn2c1-c1ccccn1 (stereo not drawn) [Example 58, 5-[(1E)-(hydroxyimino)methyl]-4-N-{1-[3-(pyridin-2-yl)indolizin-2-yl]ethyl}pyrimidine-4,6-diamine] | > 1000 | 10 to 1000 | > 1000 | < 10 |
| CC(Nc1ncnc(N)c1C#CCO)c1cc2ccccn2c1-c1ccccn1 (stereo not drawn) [Example 59, 3-[4-amino-6-({1-[3-(pyridin-2-yl)indolizin-2-yl]ethyl}amino)pyrimidin-5-yl]prop-2-yn-1-ol] | > 1000 | > 1000 | > 1000 | 10 to 1000 |
| CC(c1cc2ccccn2c1-c1ccccn1)n1nc(-c2ccccc2)c2c(N)ncnc21 (stereo not drawn) [Example 60, 3-phenyl-1-{1-[3-(pyridin-2-yl)indolizin-2-yl]ethyl}-1H-pyrazolo[3,4-d]pyrimidin-4-amine] | > 1000 | > 1000 | > 1000 | 10 to 1000 |
| CC(c1cc2ccccn2c1-c1ccccn1)n1nc(-c2cccc(O)c2)c2c(N)ncnc21 (stereo not drawn) [Example 61, 3-(4-amino-1-{1-[3-(pyridin-2-yl)indolizin-2-yl]ethyl}-1H-pyrazolo[3,4-d]pyrimidin-3-yl)phenol] | > 1000 | 10 to 1000 | 10 to 1000 | 10 to 1000 |
| COc1cc(F)cc(-c2nn(C(C)c3cc4ccccn4c3-c3ccccn3)c3ncnc(N)c23)c1 (stereo not drawn) [Example 62, 3-(3-fluoro-5-methoxyphenyl)-1-{1-[3-(pyridin-2-yl)indolizin-2-yl]ethyl}-1H-pyrazolo[3,4-d]pyrimidin-4-amine] | > 1000 | > 1000 | > 1000 | 10 to 1000 |
| CC(=O)Nc1cccc(-c2nn(C(C)c3cc4ccccn4c3-c3ccccn3)c3ncnc(N)c23)c1 (stereo not drawn) [Example 63, N-[3-(4-amino-1-{1-[3-(pyridin-2-yl)indolizin-2-yl]ethyl}-1H-pyrazolo[3,4-d]pyrimidin-3-yl)phenyl]acetamide] | > 1000 | > 1000 | > 1000 | > 1000 |
| CC(c1cc2ccccn2c1-c1ccccn1)n1nc(-c2cccc(CO)c2)c2c(N)ncnc21 (stereo not drawn) [Example 64, [3-(4-amino-1-{1-[3-(pyridin-2-yl)indolizin-2-yl]ethyl}-1H-pyrazolo[3,4-d]pyrimidin-3-yl)phenyl]methanol] | > 1000 | > 1000 | > 1000 | 10 to 1000 |
| CC(c1cc2ccccn2c1-c1ccccn1)n1nc(-c2cc(O)cc(C(F)(F)F)c2)c2c(N)ncnc21 (stereo not drawn) [Example 65, 3-(4-amino-1-{1-[3-(pyridin-2-yl)indolizin-2-yl]ethyl}-1H-pyrazolo[3,4-d]pyrimidin-3-yl)-5-(trifluoromethyl)phenol] | > 1000 | 10 to 1000 | 10 to 1000 | < 10 |
| CC(c1cc2ccccn2c1-c1ccccn1)n1nc(-c2cccc(F)c2)c2c(N)ncnc21 (stereo not drawn) [Example 66, 3-(3-fluorophenyl)-1-{1-[3-(pyridin-2-yl)indolizin-2-yl]ethyl}-1H-pyrazolo[3,4-d]pyrimidin-4-amine] | > 1000 | 10 to 1000 | > 1000 | 10 to 1000 |
| CC(c1cc2ccccn2c1-c1ccccn1)n1nc(-c2cccc(NS(C)(=O)=O)c2)c2c(N)ncnc21 (stereo not drawn) [Example 67, N-[3-(4-amino-1-{1-[3-(pyridin-2-yl)indolizin-2-yl]ethyl}-1H-pyrazolo[3,4-d]pyrimidin-3-yl)phenyl]methanesulfonamide] | > 1000 | > 1000 | > 1000 | 10 to 1000 |
| CC(c1cc2ccccn2c1-c1ccccn1)n1nc(-c2cccnc2)c2c(N)ncnc21 (stereo not drawn) [Example 68, 1-{1-[3-(pyridin-2-yl)indolizin-2-yl]ethyl}-3-(pyridin-3-yl)-1H-pyrazolo[3,4-d]pyrimidin-4-amine] | > 1000 | > 1000 | > 1000 | 10 to 1000 |
| CC(c1cc2ccccn2c1-c1ccccn1)n1nc(-c2cncc(O)c2)c2c(N)ncnc21 (stereo not drawn) [Example 69, 5-(4-amino-1-{1-[3-(pyridin-2-yl)indolizin-2-yl]ethyl}-1H-pyrazolo[3,4-d]pyrimidin-3-yl)pyridin-3-ol] | > 1000 | 10 to 1000 | 10 to 1000 | < 10 |
| CC(c1cc2ccccn2c1-c1ccccn1)n1nc(-c2ccc(O)c(F)c2)c2c(N)ncnc21 (stereo not drawn) [Example 70, 4-(4-amino-1-{1-[3-(pyridin-2-yl)indolizin-2-yl]ethyl}-1H-pyrazolo[3,4-d]pyrimidin-3-yl)-2-fluorophenol] | > 1000 | > 1000 | 10 to 1000 | 10 to 1000 |
| CC(c1cc2ccccn2c1-c1ccccn1)n1nc(-c2ccc(F)c(O)c2)c2c(N)ncnc21 (stereo not drawn) [Example 71, 5-(4-amino-1-{1-[3-(pyridin-2-yl)indolizin-2-yl]ethyl}-1H-pyrazolo[3,4-d]pyrimidin-3-yl)-2-fluorophenol] | > 1000 | > 1000 | 10 to 1000 | 10 to 1000 |
| CC(c1cc2ccccn2c1-c1ccccn1)n1nc(-c2cc(O)cc(Cl)c2)c2c(N)ncnc21 (stereo not drawn) [Example 72, 3-(4-amino-1-{1-[3-(pyridin-2-yl)indolizin-2-yl]ethyl}-1H-pyrazolo[3,4-d]pyrimidin-3-yl)-5-chlorophenol] | > 1000 | 10 to 1000 | 10 to 1000 | < 10 |
| CC(c1cc2ccccn2c1-c1ccccn1)n1nc(-c2cccc(S(N)(=O)=O)c2)c2c(N)ncnc21 (stereo not drawn) [Example 73, 3-(4-amino-1-{1-[3-(pyridin-2-yl)indolizin-2-yl]ethyl}-1H-pyrazolo[3,4-d]pyrimidin-3-yl)benzene-1-sulfonamide] | > 1000 | > 1000 | > 1000 | 10 to 1000 |
| CC(c1cc2ccccn2c1-c1ccccn1)n1nc(-c2cc(F)cc(NS(C)(=O)=O)c2)c2c(N)ncnc21 (stereo not drawn) [Example 74, N-[3-(4-amino-1-{1-[3-(pyridin-2-yl)indolizin-2-yl]ethyl}-1H-pyrazolo[3,4-d]pyrimidin-3-yl)-5-fluorophenyl]methanesulfonamide] | > 1000 | > 1000 | > 1000 | 10 to 1000 |
| CC(c1cc2ccccn2c1-c1ccccn1)n1nc(-c2cc(F)cc(S(N)(=O)=O)c2)c2c(N)ncnc21 (stereo not drawn) [Example 75, 3-(4-amino-1-{1-[3-(pyridin-2-yl)indolizin-2-yl]ethyl}-1H-pyrazolo[3,4-d]pyrimidin-3-yl)-5-fluorobenzene-1-sulfonamide] | > 1000 | > 1000 | > 1000 | > 1000 |
| CC(c1cc2ccccn2c1-c1ccccn1)n1nc(-c2cc(N)cc(F)c2)c2c(N)ncnc21 (stereo not drawn) [Example 76, 3-(3-amino-5-fluorophenyl)-1-{1-[3-(pyridin-2-yl)indolizin-2-yl]ethyl}-1H-pyrazolo[3,4-d]pyrimidin-4-amine] | > 1000 | 10 to 1000 | > 1000 | 10 to 1000 |
| CC(c1cc2ccccn2c1-c1ccccn1)n1nc(-c2cc(O)cc(C#N)c2)c2c(N)ncnc21 (stereo not drawn) [Example 77, 3-(4-amino-1-{1-[3-(pyridin-2-yl)indolizin-2-yl]ethyl}-1H-pyrazolo[3,4-d]pyrimidin-3-yl)-5-hydroxybenzonitrile] | > 1000 | 10 to 1000 | 10 to 1000 | < 10 |
| CC(c1cc2ccccn2c1-c1ccccn1)n1nc(-c2cc(F)cc(-c3nnn[nH]3)c2)c2c(N)ncnc21 (stereo not drawn) [Example 78, 3-[3-fluoro-5-(1H-1,2,3,4-tetrazol-5-yl)phenyl]-1-{1-[3-(pyridin-2-yl)indolizin-2-yl]ethyl}-1H-pyrazolo[3,4-d]pyrimidin-4-amine:ammonia 2:1] | > 1000 | > 1000 | > 1000 | > 1000 |

Reference: patent US9527869B2, “Indolizine derivatives as phoshoinositide 3-kinases inhibitors” (CHIESI FARMACEUTICI S.P.A., priority 2014, dated 2016)
